Results from PMC9673787, “1,2,3-Benzoxathiazine-2,2-dioxides – effective inhibitors of human carbonic anhydrases” (Journal of Enzyme Inhibition and Medicinal Chemistry, 2022).
Where two headings read alike, the source gives them in different places.

Experiments:
hCA I = target: T1, hCA I (Homo sapiens, UniProt P00915); test: stopped flow CO2 hydrase assay, hCA I; format: biochemical; details: 15 min incubation; for Ki: recombinant enzyme, mean from three assays, errors ± 5–10%
T1 construct: made in house
Description: (§1) An applied photophysics stopped-flow instrument has been used for assaying the CA catalysed CO2 hydration activity.[32]
(§2) Phenol red (at a concentration of 0.2 mM) was used as indicator, working at the absorbance maximum of 557 nm, with 20 mM Hepes (pH 7.5), and 20 mM Na2SO4 (for maintaining constant the ionic strength), following the initial rates of the CA-catalysed CO2 hydration reaction for a period of 10 − 100 s. The CO2 concentrations ranged from 1.7 to 17 mM for the determination of the kinetic parameters and inhibition constants. […] The uncatalysed rates were determined in the same manner and subtracted from the total observed rates. Stock solutions of inhibitor (0.1 mM) were prepared in distilled – deionised water, and dilutions up to 0.01 nM were done thereafter with the assay buffer. Inhibitor and enzyme solutions were preincubated together for 15 min at room temperature prior to assay in order to allow for the formation of the E – I complex. […] The inhibition constants were obtained by nonlinear least-squares methods using PRISM 3 and the Cheng – Prusoff equation, as reported earlier[15]^,[33–37]^, and represent the mean from at least three different determinations. All CA isoforms were recombinant ones obtained in-house as reported earlier[12]^,[18]^,[38–45].

hCA XII = target: T2, hCA XII (Homo sapiens, UniProt O43570); test: stopped flow CO2 hydrase assay, hCA XII; format: biochemical; details: 15 min incubation; for Ki: recombinant enzyme, mean from three assays, errors ± 5–10%
T2 construct: made in house
Description: as §1, §2

hCA II = target: T3, hCA II (Homo sapiens, UniProt P00918); test: stopped flow CO2 hydrase assay, hCA II; format: biochemical; details: 15 min incubation
T3 construct: made in house
Description: as §1, §2

hCA IX = target: T4, hCA IX (Homo sapiens, UniProt Q16790); test: stopped flow CO2 hydrase assay, hCA IX; format: biochemical; details: recombinant enzyme, 15 min incubation, mean from three assays, errors ± 5–10%
T4 construct: made in house
Description: as §1, §2

[1] = recombinant enzyme, mean from three assays, errors ± 5–10%, read-out: KI (nM) hCA II

T1 sequence (P00915 whole entry): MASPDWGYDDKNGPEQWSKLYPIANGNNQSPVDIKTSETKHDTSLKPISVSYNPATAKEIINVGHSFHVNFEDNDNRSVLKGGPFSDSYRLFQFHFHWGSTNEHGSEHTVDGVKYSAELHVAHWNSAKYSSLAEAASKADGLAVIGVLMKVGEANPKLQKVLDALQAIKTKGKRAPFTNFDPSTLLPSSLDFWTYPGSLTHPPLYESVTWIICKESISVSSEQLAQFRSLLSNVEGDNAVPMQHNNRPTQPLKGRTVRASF
T2 sequence (O43570 25-354): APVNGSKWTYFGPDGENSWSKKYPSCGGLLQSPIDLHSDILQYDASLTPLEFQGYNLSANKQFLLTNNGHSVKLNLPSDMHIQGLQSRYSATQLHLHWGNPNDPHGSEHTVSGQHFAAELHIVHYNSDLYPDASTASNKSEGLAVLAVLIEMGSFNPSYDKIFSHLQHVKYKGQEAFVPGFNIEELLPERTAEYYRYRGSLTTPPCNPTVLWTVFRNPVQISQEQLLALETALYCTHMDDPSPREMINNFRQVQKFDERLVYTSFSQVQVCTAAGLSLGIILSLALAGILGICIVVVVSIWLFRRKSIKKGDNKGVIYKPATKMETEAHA

Row | Ki (hCA I) | Ki (hCA XII) | Ki (hCA II; [1]) | Ki (hCA IX) | melting point | inhibition of hCA I in words (hCA I) | inhibition of hCA II in words (hCA II) | Ki (hCA II; rounded, read-out: Ki hCA II) | SMILES | inhibition of hCA XII in words (hCA XII)
1 | > 100000 nM | 18000 nM | 36900 nM | 10900 nM | 177 to 178 °C |  |  |  | COc1ccc(-c2cccc3c2C=NS(=O)(=O)O3)cc1 [5c, 5–(4-Methoxyphenyl)-1,2,3-benzoxathiazine 2,2-dioxide] | 
2 | 356 nM | 90.5 nM | 0.8 nM | 38 nM | 204 to 205 °C |  |  |  | CCOC(=O)c1ccc(-c2ccc3c(c2)OS(=O)(=O)N=C3)cc1 [5i, Ethyl 4-(2,2-dioxido-1,2,3-benzoxathiazin-7-yl)benzoate] | 
3 | > 100000 nM | 7460 nM | 14800 nM | 4140 nM |  |  |  |  | O=S1(=O)N=Cc2c(cccc2-c2ccc(F)cc2)O1 [5b, 5-(4-Fluorophenyl)-1,2,3-benzoxathiazine 2,2-dioxide] | 
4 | 1850 nM | 12.4 nM | 5.6 nM | 32.3 nM | 123 to 124 °C |  |  |  | O=S1(=O)N=Cc2cccc(-c3ccc(F)cc3)c2O1 [5k, 8-(4-Fluorophenyl)-1,2,3-benzoxathiazine 2,2-dioxide] | 
5 | 668 nM | 61.8 nM | 0.5 nM | 49.1 nM | 164 to 165 °C |  |  |  | O=S1(=O)N=Cc2cccc(-c3ccccc3)c2O1 [5j, 8-Phenyl-1,2,3-benzoxathiazine 2,2-dioxide] | 
6 | > 100000 nM | > 100000 nM | > 100000 nM | > 100000 nM |  |  | not inhibited |  | CCOC(=O)c1ccc(-c2cccc3c2C=NS(=O)(=O)O3)cc1 [5e, Ethyl 4-(2,2-dioxido-1,2,3-benzoxathiazin-5-yl)benzoate] | did not exhibit any inhibitory properties
7 | > 100000 nM | 45300 nM | > 100000 nM | > 100000 nM | 230 to 231 °C |  | not inhibited |  | O=S1(=O)N=Cc2c(cccc2-c2ccc(Cl)c(Cl)c2)O1 [5d, 5-(3,4-Dichlorophenyl)-1,2,3-benzoxathiazine 2,2-dioxide] | 
8 | 4260 nM | 7.3 nM | 12.3 nM | 62.7 nM | 133 to 134 °C |  |  |  | COc1ccc(-c2cccc3c2OS(=O)(=O)N=C3)cc1 [5l, 8-(4-Methoxyphenyl)-1,2,3-benzoxathiazine 2,2-dioxide] | 
9 | 5680 nM | 78.3 nM | 7.7 nM | 28.6 nM | 171 to 172 °C |  |  |  | O=S1(=O)N=Cc2ccc(-c3ccccc3)cc2O1 [5f, 7-Phenyl-1,2,3-benzoxathiazine 2,2-dioxide] | 
10 | 6710 nM | 4.8 nM | 9.5 nM | 40.8 nM | 165 to 166 °C |  |  |  | O=S1(=O)N=Cc2cccc(-c3ccc(Cl)c(Cl)c3)c2O1 [5m, 8-(3,4-Dichlorophenyl)-1,2,3-benzoxathiazine 2,2-dioxide] | 
11 | 30300 nM | 36.4 nM | 14.3 nM | 45.2 nM | 181 to 182 °C |  |  |  | COc1ccc(-c2ccc3c(c2)OS(=O)(=O)N=C3)cc1 [5h, 7-(4-Methoxyphenyl)-1,2,3-benzoxathiazine 2,2-dioxide] | 
12 | 15200 nM | 8.2 nM | 2.1 nM | 69.8 nM | 164 to 165 °C |  |  |  | O=S1(=O)N=Cc2ccc(-c3ccc(F)cc3)cc2O1 [5g, 7-(4-Fluorophenyl)-1,2,3-benzoxathiazine 2,2-dioxide] | 
13 | > 100000 nM | 12600 nM | 9870 nM | 5250 nM | 156 to 157 °C |  |  |  | O=S1(=O)N=Cc2c(cccc2-c2ccccc2)O1 [5a, 5-Phenyl-1,2,3-benzoxathiazine 2,2-dioxide] | 

More lines, now with the values behind:

Row | SMILES | Ki (hCA I) | Ki (hCA XII) | Ki (hCA II; [1]) | Ki (hCA IX) | melting point | inhibition of hCA I in words (hCA I) | inhibition of hCA II in words (hCA II) | Ki (hCA II; rounded, read-out: Ki hCA II) | inhibition of hCA XII in words (hCA XII)
14 | Cc1ccc2c(c1)C=NS(=O)(=O)O2 [2a, 6-Methyl-1,2,3-benzoxathiazine 2,2-dioxide] | 25700 nM | 98.2 nM | 116 nM | 72 nM |  |  |  |  | 
15 | COc1ccc2c(c1)C=NS(=O)(=O)O2 [2b, 6-Methoxy-1,2,3-benzoxathiazine 2,2-dioxide] | > 100000 nM | 75.1 nM | 168 nM | 62.8 nM |  | did not inhibit |  |  | 
16 | COc1ccc2c(c1)OS(=O)(=O)N=C2 [2f, 7-Methoxy-1,2,3-benzoxathiazine 2,2-dioxide] | 987 nM | 83.1 nM | 55.2 nM | 39.7 nM |  |  |  |  | 
17 | O=S1(=O)N=Cc2cccc(Br)c2O1 [2k, 8-Bromo-1,2,3-benzoxathiazine 2,2-dioxide] | 788 nM | 86.3 nM | 113 nM | 41.8 nM |  |  |  |  | 
18 | O=S1(=O)N=Cc2cccc(F)c2O1 [2j, 8-Fluoro-1,2,3-benzoxathiazine 2,2-dioxide] | 466 nM | 34.7 nM | 89.2 nM | 65.9 nM |  |  |  |  | 
19 | O=S1(=O)N=Cc2ccc(F)cc2O1 [2g, 7-Fluoro-1,2,3-benzoxathiazine 2,2-dioxide] | 448 nM | 112 nM | 86.7 nM | 55.4 nM |  |  |  |  | 
20 | O=S1(=O)N=Cc2cc(Br)ccc2O1 [2d, 6-Bromo-1,2,3-benzoxathiazine 2,2-dioxide] | > 100000 nM | 186 nM | 8320 nM | 27.4 nM |  | did not inhibit |  | 8300 nM | 
21 | Cc1ccc2c(c1)OS(=O)(=O)N=C2 [2e, 7-Methyl-1,2,3-benzoxathiazine 2,2-dioxide] | 657 nM | 58 nM | 78.9 nM | 53.1 nM |  |  |  |  | 
22 | COc1cccc2c1OS(=O)(=O)N=C2 [2i, 8-Methoxy-1,2,3-benzoxathiazine 2,2-dioxide] | 1520 nM | 63.4 nM | 39 nM | 73.6 nM |  |  |  |  | 
23 | O=S1(=O)N=Cc2cc(F)ccc2O1 [2c, 6-Fluoro-1,2,3-benzoxathiazine 2,2-dioxide] | 3320 nM | 121 nM | 71.8 nM | 58.3 nM |  |  |  |  | 
24 | O=S1(=O)N=Cc2ccc(Br)cc2O1 [2h, 7-Bromo-1,2,3-benzoxathiazine 2,2-dioxide] | 46500 nM | 70.1 nM | 45.1 nM | 22.3 nM |  |  |  |  | 
